Data taken from patent US20250270170A1, “2,3-DIMETHOXY-5-METHYL-1,4-BENZOQUINONE ALKYL ALCOHOL DERIVATIVE AND USE THEREOF” (BEIJING ANJIANXI BIO-MEDICAL TECHNOLOGY CO., LTD., priority 2021, published 2025).

Columns and labels:
[1] = system: NCI-H460 cells; assay: Flow cytometry for cell cycle detection, NCI-H460; assay type: cell-based, human
Method: (1) Cells were inoculated in a 6-well plate. When about 50% of the cells were adherent and fused, the compound of formula (I) at a concentration of 0 μM, 10 μM, 30 μM, and 90 μM were added, respectively. The plate was placed in an incubator at 37° C. with 5% CO2 to continue culturing, and three time points were set, which were 24 h, 48 h and 72 h, respectively.
(2) After reaching the designated time point, the cell culture plate was taken out from the incubator, and placed in a biological safety cabinet. A 4 ml centrifuge tube was taken and marked. The supernatant in each well was pipetted out and added to the corresponding 4 ml centrifuge tube. The cells were gently washed with PBS, and the PBS was added to the corresponding centrifuge tube. An appropriate amount of trypsin was added to each well to digest the cells. When the cells were digested to a moderate degree, the old culture medium from the centrifuge tube was added to the corresponding well. The cells were gently pipetted with apipette to form a single-cell suspension, which was pipetted back into the original centrifuge tube. The tube was immediately centrifuged at 1500 rpm for 5 minutes. Then, the supernatant was discarded and the precipitate was retained.
(3) 2 ml of pre-chilled PBS was added to the centrifuge tube, and centrifuged again at 1500 rpm for 5 minutes. The supernatant was discarded, and the cell debris was removed.
(4) 1 ml of 75% ethanol was added while pipetting the cells, to make the cells appear as single as possible. Then, the cells were fixed at 4° C. overnight or stored at −20° C. for long-term storage (can be stored for 1 week).
(5) The fixed cells were taken out, and centrifuged at 1000 rpm for 5 minutes. The ethanol was discarded, and pre-chilled PBS was added to wash the cells. Then, the cells were centrifuged at 1000 rpm for 5 min to remove the residual ethanol on the cells.
(6) A cell cycle detection kit from Wuhan Promoter Biology Co., Ltd. was used. 100 μl of RNaseA was added, and incubated in a 37° C. water bath for 30 minutes.
(7) 400 μl of PI was added and mixed well, and incubated at 4° C. in dark for 30 minutes.
(8) The cell cycle was detected by upflow cytometry.

[2] = system: A549 cells; assay: CCK-8 cell proliferation assay, A549; assay type: cell-based; conditions: Homo sapiens
Method: (1) Cells in the logarithmic growth phase were taken and digested to make a cell suspension. 20 μl of the cell suspension was taken with a pipette, and added to a CountStar disposable cell counting plate for cell counting, and the counting results were recorded. The cell concentration was adjusted to 30,000 to 40,000 cells/ml (note: different cells have different growth rates, so the number of cells in each well was slightly different).
(2) A 96-well plate was taken. Since the wells in the outermost circle of the culture plate were easy to evaporate and dry, causing inaccurate volumes, and increasing errors, 100 μl of PBS was added to the wells in the outermost circle, which were not used as assay wells.
(3) The adjusted cell suspension was added to the 96-well plate, with 100 μl in each well, resulting approximately 3000 to 4000 cells in each well. The plate was placed in a 37° C. incubator under the condition of 5% CO2 for cell culture, and the drug was added when the cells adhered to the wall.
(4) Drug dilution. The concentration gradient was set as: 0 μM, 10 μM, 50 μM, 100 μM, and 200 μM, with 3 duplicates for each concentration. In addition, blank control wells containing only culture medium and drug without cells were also set.
(5) The plate was incubated in the incubator for 24 h, 48 h and 72 h, respectively. After reaching the set time point, the 96-well plate was taken out from the incubator, and 10 μl of CCK-8 reagent was added to each well, taking care to avoid bubbles. The plate was shaked to mix evenly, and put back into the incubator to culture for another 2 hours.
(6) To detect the absorbance, the 96-well plate was placed in a […], and the absorbance value (OD value) at 450 nm was detected. The data was recorded. Cell viability=(OD value of the assay well−OD value of the blank control well)/(OD value of the solvent control well−OD value of the blank control well)×100%.
(7) The data was imported into GraphPad Prism5 for plotting. The IC50 values were calculated, and the curves were drawn.

[3] = Example 8: body weight of ECA109 tumor-bearing mice; assay type: in vivo, nude mice; conditions: DDP 5 mg/kg i.p. QW×4
Excerpt: The assay animals, calculation of tumor volume (TV), end of assay, data recording, calculation formula of tumor growth inhibition rate TGI (%), and statistical analysis method were the same as those in Example 3; the preparation of the administration formulation of the compound of formula (I) was the same as that in Example 5. […] The cells were pipetted with a pipette to disperse them evenly, and the cells were put into a 50-mL centrifuge tube, which was placed in an ice box. A 1-mL syringe was used to draw the cell suspension, which was injected subcutaneously into the axilla of the front right limb of a […]. Each animal was inoculated with 200 μL (1.0×10^7 cells/mouse) to establish an ECA109 transplanted tumor model in nude mice. After the inoculation, the animal status and tumor growth were regularly observed, and the tumor diameter was measured using an electronic vernier caliper. The data were input into an Excel spreadsheet to calculate the tumor volume. When the tumor volume reached 100 to 300 mm^3, animals in good health and with similar tumor volumes were selected and divided into groups using randomized block method. The day of grouping was regarded as the first day of the assay (D1). After the start of the assay, the tumor diameter was measured twice a week, the tumor volume was calculated, and the animal body weight was also weighed and recorded. [table]

In the case of COC1=C(OC)C(=O)C(CCCCCCCCCCOC(=O)Cc2c(C)n(C(=O)c3ccc(Cl)cc3)c3ccc(OC)cc23)=C(C)C1=O [compound of formula (I)], the “proportion of S phase cells” value ([1]; 10 μM, 24 h) is reported as 26.03%, the “proportion of S phase cells” value ([1]; 10 μM, 48 h) is reported as 29.62% and the “proportion of S phase cells” value ([1]; 10 μM, 72 h) is reported as 21.61%. The “proportion of S phase cells” value ([1]; 30 μM, 24 h) was 13.15%, the “proportion of S phase cells” value ([1]; 30 μM, 48 h) was 16.02% and the “proportion of S phase cells” value ([1]; 30 μM, 72 h) was 20.98%. The “proportion of S phase cells” value ([1]; 90 μM, 24 h) was 9.76%, the “proportion of S phase cells” value ([1]; 90 μM, 48 h) was 0.97% and the “proportion of S phase cells” value ([1]; 90 μM, 72 h) was 3.36%. The IC50 ([2]; 24 h) was 213.2 ± 1.22 µM, the IC50 ([2]; 48 h) was 55.5 ± 1.84 µM and the IC50 ([2]; 72 h) was 39.7 ± 0.98 µM.

In the case of N.N.[Cl][Pt][Cl] [DDP, cisplatin], the “Mean animal body weight” value ([3]; D1) is reported as 20.8 ± 0.4 g, the “Mean animal body weight” value ([3]; D5) is reported as 20.3 ± 0.6 g and the “body weight loss rate” value ([3]; D5) is reported as “(2.1%)”. For the same compound, the “Mean animal body weight” value ([3]; D8) was 20.5 ± 0.4 g, the “body weight loss rate” value ([3]; D8) was “(1.4%)” and the “Mean animal body weight” value ([3]; D12) was 19.4 ± 0.4 g. The “body weight loss rate” value ([3]; D12) was “(6.7%)”, the “Mean animal body weight” value ([3]; D15) was 19.9 ± 0.3 g and the “body weight loss rate” value ([3]; D15) was “(4.3%)”. The “Mean animal body weight” value ([3]; D19) was 19.0 ± 0.3 g, the “body weight loss rate” value ([3]; D19) was “(8.5%)” and the “Mean animal body weight” value ([3]; D22) was 19.5 ± 0.4 g. The “body weight loss rate” value ([3]; D22) was “(5.9%)”, the “Mean animal body weight” value ([3]; D26) was 17.7 ± 0.3 g and the “body weight loss rate” value ([3]; D26) was “(15%)”. For the same compound, the “Mean animal body weight” value ([3]; D29) was 17.9 ± 0.3 g, the “body weight loss rate” value ([3]; D29) was “(14%)” and the “Mean animal body weight” value ([3]; D33) was 18.7 ± 0.4 g. The “body weight loss rate” value ([3]; D33) was “(10%)”, the “Mean animal body weight” value ([3]; D36) was 18.7 ± 0.3 g and the “body weight loss rate” value ([3]; D36) was “(10%)”.
